Calls of active or inactive are those of the source.
Assays:
HeLa [1] = assay: Photocytotoxicity against human HeLa cells assessed as cell membrane blebbing at 10 uM preincubated for 1 hr followed by blue LED light irradiation for 5 mins by differential interference contrast imaging analysis; assay type: functional, cell-based
HeLa [2] = assay: Photocytotoxicity against human HeLa cells assessed as cell shrinkage at 10 uM preincubated for 1 hr followed by blue LED light irradiation for 5 mins and measured after 13 hrs by propidium iodide staining based fluorescence microscopic method; assay type: functional
HeLa [3] = assay: Photocytotoxicity against human HeLa cells assessed as reduction in cell viability at 2 uM preincubated for 1 hr followed blue LED light irradiation for 5 mins and measured after 24 hrs in presence of singlet oxygen scavenger histidine by MTT assay; assay type: functional, cell-based
[4] = Drug uptake in human HeLa cell nucleus at 10 uM after 1 hr by mitotracker red staining based confocal laser scanning microscopic method; assay type: ADME, subcellular
DNA [5] = assay: Induction of Escherichia coli pBR322 DNA cleavage at 20 uM irradiated with blue LED light after 30 mins in presence of H2O2 scavenger KI by agarose gel electrophoresis method; assay type: nucleic-acid assay
DNA [6] = assay: Induction of Escherichia coli pBR322 DNA cleavage at 20 uM irradiated with blue LED light after 30 mins in presence of hydroxyl radical scavenger mannitol by agarose gel electrophoresis method; assay type: nucleic-acid assay
DNA [7] = assay: Induction of Escherichia coli pBR322 DNA cleavage irradiated with blue LED light after 30 mins by agarose gel electrophoresis method; assay type: nucleic-acid assay
A549 [8] = assay: Photocytotoxicity against human A549 cells assessed as reduction in cell viability preincubated for 1 hr followed blue LED light irradiation for 10 mins and measured after 24 hrs by MTT assay; assay type: functional, cell-based
HeLa [9] = assay: Photocytotoxicity against human HeLa cells assessed as reduction in cell viability preincubated for 1 hr followed blue LED light irradiation for 10 mins and measured after 24 hrs by MTT assay; assay type: functional, cell-based
HeLa [10] = assay: Photocytotoxicity against human HeLa cells assessed as cell shrinkage at 20 uM preincubated for 1 hr followed by blue LED light irradiation for 10 mins and measured after 2.5 hrs by holotomographic method; assay type: functional, cell-based
HeLa [11] = assay: Induction of ROS generation in human HeLa cells preincubated for 1 hr followed by blue LED light irradiation for 15 mins by DHE staining based HCS analysis; assay type: functional, cell-based
DNA [12] = assay: Induction of Escherichia coli pBR322 DNA cleavage at 20 uM after 30 mins under dark condition by agarose gel electrophoresis method; assay type: nucleic-acid assay; settings: 0.5 h
HeLa [13] = assay: Photocytotoxicity against human HeLa cells assessed as chromatin condensation up to 10 uM preincubated for 1 hr followed by blue LED light irradiation for 5 mins and measured after 13 hrs by Hoechst 33258 staining based fluorescence microscopic method; assay type: functional, cell-based
HeLa [14] = assay: Photocytotoxicity against human HeLa cells assessed as plasma membrane blebbing at 5 uM preincubated for 1 hr followed by blue LED light irradiation for 10 to 30 mins and measured after 2.5 hrs by holotomographic method; assay type: functional, cell-based
HeLa [15] = assay: Photocytotoxicity against human HeLa cells assessed as cellular shrinkage up to 10 uM preincubated for 1 hr followed by blue LED light irradiation for 5 mins and measured after 13 hrs by Hoechst 33258 staining based fluorescence microscopic method; assay type: functional, cell-based
[16] = Drug uptake in human HeLa cell cytoplasm at 10 uM after 1 hr by mitotracker red staining based confocal laser scanning microscopic method; assay type: ADME, subcellular
HeLa [17] = assay: Photocytotoxicity against human HeLa cells assessed as membrane protrusion at 20 uM preincubated for 1 hr followed by blue LED light irradiation for 10 mins and measured after 2.5 hrs by holotomographic method; assay type: functional, cell-based
Calf thymus DNA [18] = assay: Binding affinity to calf thymus DNA assessed as red shift in emission maxima; assay type: nucleic-acid assay; settings: Bos taurus
[19] = Dark toxicity in human HeLa cells assessed as reduction in cell viability up to 10 uM measured after 24 hrs by MTT assay; assay type: cell-based
HeLa [20] = assay: Photocytotoxicity against human HeLa cells assessed as plasma membrane blebbing at 0.5 uM preincubated for 1 hr followed by blue LED light irradiation for 5 mins and measured after 13 hrs by propidium iodide staining based fluorescence microscopic method; assay type: functional, cell-based
HeLa [21] = assay: Photocytotoxicity against human HeLa cells assessed as increase in cleaved caspase-3 protein expression preincubated for 1 hr followed by blue LED light irradiation for 10 mins and measured after 18 hrs by Western blot analysis; assay type: functional, cell-based
MCF7 [22] = assay: Photocytotoxicity against human MCF7 cells assessed as reduction in cell viability preincubated for 1 hr followed blue LED light irradiation for 10 mins and measured after 24 hrs by MTT assay; assay type: functional, cell-based
[23] = Drug uptake in human MCF7 cell mitochondria at 10 uM incubated for 1 to 2 hrs under 488 nanometer laser light irradiation by confocal microscopic method; assay type: ADME; settings: mcf7, 10 µM
HeLa [24] = assay: Photocytotoxicity against human HeLa cells assessed as reduction in cell viability preincubated for 1 hr followed blue LED light irradiation for 5 mins and measured after 24 hrs by MTT assay; assay type: functional, cell-based
DNA [25] = assay: Binding affinity to Escherichia coli pBR322 DNA assessed as increase in test compound fluorescence irradiated with blue LED light for 5 to 20 mins; assay type: nucleic-acid assay
MCF7 [26] = assay: Photocytotoxicity against human MCF7 cells assessed as reduction in cell viability preincubated for 1 hr followed blue LED light irradiation for 5 mins and measured after 24 hrs by MTT assay; assay type: functional, cell-based
HeLa [27] = assay: Photocytotoxicity against human HeLa cells assessed as plasma membrane blebbing up to 10 uM preincubated for 1 hr followed by blue LED light irradiation for 5 mins and measured after 13 hrs by Hoechst 33258 staining based fluorescence microscopic method; assay type: functional, cell-based
MCF7 [28] = assay: Photocytotoxicity against human MCF7 cells assessed as cytoplasmic shrinkage at 10 uM preincubated for 1 hr followed by 488 nanometer laser light irradiation and measured after 8 to 10 mins by confocal microscopic method; assay type: functional, cell-based
A549 [29] = assay: Photocytotoxicity against human A549 cells assessed as reduction in cell viability preincubated for 1 hr followed blue LED light irradiation for 5 mins and measured after 24 hrs by MTT assay; assay type: functional, cell-based
NIH3T3 = assay: Cytotoxicity against mouse NIH/3T3 cells assessed as cytoplasmic shrinkage at 10 uM preincubated for 1 hr followed by 488 nanometer laser light irradiation and measured after 16 mins by confocal microscopic method; assay type: cell-based; settings: nih3t3, 16 min
HeLa [30] = assay: Photocytotoxicity against human HeLa cells assessed as DNA fragmentation up to 10 uM preincubated for 1 hr followed by blue LED light irradiation for 5 mins and measured after 13 hrs by Hoechst 33258 staining based fluorescence microscopic method; assay type: functional, cell-based
[31] = Drug uptake in mouse NIH/3T3 cell mitochondria at 10 uM incubated for 1 to 2 hrs under 488 nanometer laser light irradiation by confocal microscopic method; assay type: ADME; settings: nih3t3, 10 µM
[32] = Dark toxicity in human MCF7 cells assessed as reduction in cell viability up to 10 uM measured after 24 hrs by MTT assay; assay type: cell-based; settings: mcf7, 24 h
Calf thymus DNA [33] = assay: Binding affinity to calf thymus DNA assessed as red shift in absorption maxima; assay type: nucleic-acid assay; settings: Bos taurus
HeLa [34] = assay: Photocytotoxicity against human HeLa cells assessed as cell rounding at 5 uM preincubated for 1 hr followed by blue LED light irradiation for 10 to 30 mins and measured after 2.5 hrs by holotomographic method; assay type: functional, cell-based

Cc1cccn2c1cc1c3ccccc3nc(-c3ccco3)c12
Not Active: Drug uptake [4]
36 nm: Activity (Calf thymus DNA [18])
1.12 µM: IC50 (HeLa [9]; light or radiation study)
Non-Toxic: Activity (DNA [12]) | Activity [19] | Activity (NIH3T3) | Activity [32]
Active: Drug uptake [16] | Drug uptake [23] | Drug uptake [31]
1.76 µM: IC50 (HeLa [24]; light or radiation study)
2.37 µM: IC50 (A549 [8]; A549, light or radiation study)
57 nm: Activity (Calf thymus DNA [33])
inactive: Activity (HeLa [3]) | Activity (DNA [5])
2.39 µM: IC50 (MCF7 [26]; MCF7, light or radiation study)
1.67 µM: IC50 (MCF7 [22]; MCF7, light or radiation study)
2.96 µM: IC50 (A549 [29]; A549, light or radiation study)
active: Activity (HeLa [1]) | Activity (HeLa [2]) | Activity (DNA [6]) | Activity (DNA [7]) Dose-dependent effect | Activity (A549 [8]) Dose-dependent effect | Activity (HeLa [9]) Dose-dependent effect | Activity (HeLa [10]) | Activity (HeLa [11]) Dose-dependent effect | Activity (HeLa [13]) | Activity (HeLa [14]) | Activity (HeLa [15]) | Activity (HeLa [17]) | Activity (HeLa [20]) | Activity (HeLa [21]) Dose-dependent effect | Activity (MCF7 [22]) Dose-dependent effect | Activity (HeLa [24]) Dose-dependent effect | Activity (DNA [25]) | Activity (MCF7 [26]) Dose-dependent effect | Activity (HeLa [27]) | Activity (MCF7 [28]) | Activity (A549 [29]) Dose-dependent effect | Activity (HeLa [30]) | Activity (HeLa [34])

— ChEMBL document CHEMBL4145551, “Mitochondria-targeting indolizino[3,2-c]quinolines as novel class of photosensitizers for photodynamic anticancer activity” (Eur J Med Chem, 2018)
